According to EP1394219A1, “PH sensitive cyanine dyes as reactive fluorescent reagents” (CARNEGIE MELLON UNIVERSITY, priority 1999, dated 2000):
Where two headings read alike, the source gives them in different places.

Legend:
[1] = Fluorescence and UV absorbance properties of the dyes in phosphate buffers of different pH, pKa from emission intensity ratio I/Io; conditions: for λmax pH 5.00 / λmaxpH 10.00: UV absorbance maximum; for λmax pH 5.00 / λmaxpH 10.00 / λEm(nm): phosphate buffer; for λmaxpH 10.00: pH 10.00; for λEm(nm): fluorescence emission maximum; for pKa: phosphate buffers, pH 5.85
Description: (§1) The pKa was measured as the ratio of emission intensity at the pH measured and the emission intensity for maximum emission, or I/Io. […] The pKa can be calculated to be where I/Io = 0.5 or where the fluorescent probe is 50% protonated.

[2] = phosphate buffer, pH 5.85
Description: as §1

[3] = cited from earlier work; for pKa: product literature value, may be different in a cellular environment

SMILES	λmax pH 5.00 [1] [nm]	λmaxpH 10.00 [1] [nm]	λEm(nm) [1] [nm]	pKa [1]	pKa [2]	solubility in DMSO [3]	pKa [3]
CC1(C)\C(=C/C=C/C=C/c2sc3ccccc3[n+]2CCCCCC(=O)O)Nc2ccc(S(=O)(=O)O)cc21 [Compound 7]	640	531	670	6.85	–	–	–
CC1(C)C(/C=C/C=C/C=C2Nc3ccc4c(S(=O)(=O)O)cc(S(=O)(=O)O)cc4c3C2(C)C)=[N+](CCCCCC(=O)O)c2ccc(S(=O)(=O)[O-])cc21 [Compound 9]	655	522	680	–	7.25	–	–
O=c1c2cccc3c(NCCN4CCOCC4)ccc(c32)c2nc3ccccc3n12 [LYSOSENSOR GREEN DND-189]	–	–	–	–	–	soluble	5.2
CN(C)Cc1c2ccccc2c(CN(C)C)c2ccccc12 [LYSOSENSOR BLUE DND-192]	–	–	–	–	–	soluble	7.5
c1ccc2c(CN3CCOCC3)c3ccccc3c(CN3CCOCC3)c2c1 [LYSOSENSOR BLUE DND-167]	–	–	–	–	–	soluble	5.1
CC1(C)/C(=C\C=C\c2sc3ccccc3[n+]2CCCCS(=O)(=O)O)Nc2ccc(CC(=O)O)cc21 [Compound 6]	552	433	580	9.8	–	–	–
CN(C)CCNc1ccc2c3c1cccc3c(=O)n1c3ccccc3nc21 [LYSOSENSOR GREEN DND-153]	–	–	–	–	–	soluble	7.5
CC1(C)C(=CC=CC2=[N+](CCCCCC(=O)O)c3ccc(S(=O)(=O)[O-])cc3C2(C)C)Nc2ccc(S(=O)(=O)O)cc21 [Compound 3.39]	550	476	565	–	7.75	–	–

Further lines, with some results ahead:

λmax pH 5.00 [1] [nm]	λmaxpH 10.00 [1] [nm]	λEm(nm) [1] [nm]	pKa [1]	pKa [2]	SMILES	solubility in DMSO [3]	pKa [3]
650	531	665	7.25	–	C[N+]1=C(/C=C/C=C/C=C2/Nc3ccc(S(=O)(=O)O)cc3C2(C)C)C(C)(C)c2cc(CN)ccc21 [Compound 8]	–	–
650	515	665	–	6.4	CC1(C)C(=C/C=C/C=C/C2=[N+](CCCCS(=O)(=O)[O-])c3ccc(CC(=O)O)cc3C2(C)C)Nc2ccc(S(=O)(=O)O)cc21 [Compound 4]	–	–
650	484	665	–	7.5	CC[N+]1=C(/C=C/C=C/C=C2Nc3ccc(CC(=O)O)cc3C2(C)C)C(C)(C)c2cc(S(=O)(=O)[O-])ccc21 [Compound 5]	–	–
653	501	660	–	7.5	CC1(C)C(=C/C=C/C=C/C2=[N+](CCCCCC(=O)NN)c3ccc(S(=O)(=O)[O-])cc3C2(C)C)Nc2ccc(S(=O)(=O)O)cc21 [Compound 10]	–	–
